# In patent US20220402917A1, “COMPOUND AS SMALL MOLECULE INHIBITOR PD-1/PD-L1 AND APPLICATION THEREOF” (MEDSHINE DISCOVERY INC., priority 2019, published 2022):
# Molecular target: T1, PD-L1 in MDA-MR-231 cells (Homo sapiens, UniProt Q9NZQ7)
# T1 construct: endogenous in cells; host or cells: MDA-MB-231
# Test: Effect on expression level of PD-L1 in MDA-MR-231 cells (FACS)
# Assay type: cell-based
# Conditions: 24 hours incubation, FACS detection of cell surface PD-L1
# Outline: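 MDA-MB-231 cells (1×10^5/well) were incubated 24 h at 37 °C with 5-fold serially diluted compounds. Cells were detached with 10 mM EDTA, then stained with anti-human PD-L1 and LIVE/DEAD dye (4 °C, 30 min) and fixed. Surface PD-L1 was measured by flow cytometry.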
# T1 sequence (Q9NZQ7 19-290): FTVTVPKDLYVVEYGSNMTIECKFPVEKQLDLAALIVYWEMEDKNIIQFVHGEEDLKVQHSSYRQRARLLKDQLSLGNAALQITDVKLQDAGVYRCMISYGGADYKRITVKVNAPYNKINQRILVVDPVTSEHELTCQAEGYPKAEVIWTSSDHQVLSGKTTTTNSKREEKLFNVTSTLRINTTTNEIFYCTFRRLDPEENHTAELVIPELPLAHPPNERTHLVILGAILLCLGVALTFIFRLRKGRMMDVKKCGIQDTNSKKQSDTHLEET
structure (smiles),measurement,value
COc1nc(-c2cccc(-c3cccc(NC(=O)c4cc(C)c5c(n4)CN(CCO)CC5)c3Cl)c2Cl)cnc1CN1CC(O)C1 [Compound 21],IC50,5.73 nM
